# Read-outs that look alike come from different tables or passages of the source.
# Key:
# L1210 = L1210 leukemia model in vivo (% ILS, survival time); set-up: species or system mouse; settings: for ILS at 46.4 mg/kg: read-out: % ILS L1210
# Excerpt: In the hollow fiber assay, both compounds were almost equally strongly active, while on L 1210 D-24851 was markedly more strongly active after oral and intraperitoneal administration than D-24241.
# SK-OV-3 cell line = assay: XTT proliferation test/cytotoxicity test, SK-OV-3 cell line; assay type: cell-based; settings: for EC50: Homo sapiens; for XTT EC50 SK-OV-3: SK-OV-3 tumor cells
# Protocol: (§1) In this test system, the effect of substances on the proliferation behavior of tumor cell lines is investigated. In the course of this, the cytotoxic potential of these substances is determined. The test method is described in Scudiero et al. 1988, Cancer Res. 48, 4827.
# (§2) The following tumor cell lines were employed in the investigations:
# (§3) The KB cell line an epidermal carcinoma of the oral cavity,
# (§4) the L1210 cell line a lymphatic leukemia of the mouse, the LNCAP cell line a prostate carcinoma and the SK-OV-3 cell line an ovarian carcinoma.
# LNCAP cell line = assay: XTT proliferation test/cytotoxicity test, LNCAP cell line; assay type: cell-based; settings: for EC50: Homo sapiens, read-out: XTT EC50 LNCaP
# Protocol: as §1, §2, §3, §4
# [1] = for Tox. p.o.: p.o. (Table 5)
# KB cell line = assay: XTT proliferation test/cytotoxicity test, KB cell line; assay type: cell-based; settings: for EC50: Homo sapiens, KB, read-out: XTT EC50 KB
# Protocol: as §1, §2, §3, §4
# L1210 cell line = assay: XTT proliferation test/cytotoxicity test, L1210 cell line; assay type: cell-based, mouse; settings: for EC50: Mus musculus; for XTT EC50 L1210: L1210 tumor cells
# Protocol: as §1, §2, §3, §4
# [2] = SK-OV-3, SK-OV-3 tumor cells, read-out: XTT EC50 SK-OV-3
# [3] = L1210, L1210 tumor cells, read-out: XTT EC50 L1210
# [4] = SK-OV-3, read-out: XTT EC50 SK-OV-3
# [5] = L1210, read-out: XTT EC50 L1210
structure (smiles),measurement,setting,value
"O=c1[nH]cc(F)c(=O)[nH]1 [5-Fluorouracil, reference compound]",ILS at 147 mg/kg,"L1210; Mus musculus, L1210, ip, 1 × 147 mg/kg i.p.",72%
same,ILS at 68.1 mg/kg,"L1210; Mus musculus, L1210, ip, 4 × 68.1 mg/kg i.p.",83%
"COc1cccc2c1C(=O)c1c(O)c3c(c(O)c1C2=O)C[C@@](O)(C(=O)CO)C[C@@H]3O[C@H]1C[C@H](N)[C@H](O)[C@H](C)O1 [Adriamycin, reference compound]",EC50,SK-OV-3 cell line; [2],0.089 µg/mL
same,EC50,LNCAP cell line; LNCaP tumor cells,0.17 µg/mL
same,ILS at 14.7 mg/kg,"L1210; Mus musculus, L1210, iv, 1 × 14.7 mg/kg i.v.",111%
same,Tox. i.v.,[1]; i.v. (Table 5),≈27.0 i.v. mg/kg
same,EC50,KB cell line; KB tumor cells,0.15 µg/mL
same,EC50,L1210 cell line; [3],0.174 µg/mL
N.N.O=C([O-])C1(C(=O)[O-])CCC1.[Pt+2] [Carboplatin],% ILS L1210,L1210; 1 × 100 mg/kg i.p.,41% ILS
same,Tox. i.p.,[1]; i.p. (Table 5),≈158.0 mg/kg
same,Tox. p.o.,[1],≈841.0 p.o mg/kg
"N.N.[Cl][Pt][Cl] [Cisplatin, reference compound]",% ILS L1210,L1210; 1 × 3.16 mg/kg i.p.,38.9% ILS
same,XTT EC50 L1210,L1210 cell line,L1210 0.30 μg/ml
"O=P1(N(CCCl)CCCl)NCCCO1 (stereo not drawn) [Cyclophosphamide, reference compound]",ILS at 46.4 mg/kg,"L1210; Mus musculus, L1210, iv",40%
same,Tox. i.v.,[1]; i.v. (Table 5),≈340.7 i.v. mg/kg
"C/C(=C\c1csc(C)n1)[C@@H]1C[C@@H]2O[C@]2(C)CCC[C@H](C)[C@H](O)[C@@H](C)C(=O)C(C)(C)[C@@H](O)CC(=O)O1 [Epothilone B, reference compound]",XTT EC50 SK-OV-3,SK-OV-3 cell line,SKOV3 ~ 0.0031 μg/ml
same,XTT EC50 LNCaP,LNCAP cell line; LNCaP tumor cells,LNCAR ~ 0.014 μg/ml
same,% ILS L1210,L1210; 1 × 10 mg/kg i.p.,44% ILS
same,Tox. i.p.,[1]; i.p. (Table 5),≈100.0 i.p. mg/kg
same,XTT EC50 KB,KB cell line; KB tumor cells,KB ~ 0.0002 μg/ml
same,XTT EC50 L1210,L1210 cell line,L1210 ~ 0.0017 μg/ml
COc1cc([C@@H]2c3cc4c(cc3[C@@H](O[C@@H]3O[C@@H]5CO[C@@H](C)O[C@H]5[C@H](O)[C@H]3O)[C@H]3COC(=O)[C@H]23)OCO4)cc(OC)c1O [Etoposide],ILS at 46.4 mg/kg,"L1210; Mus musculus, L1210, ip, 1 × 46.4 mg/kg i.p.",56%
same,Tox. i.p.,"[1]; in vivo, ip",≈158.0 i.p. mg/kg
same,Tox. i.v.,"[1]; in vivo, iv",>68.1 i.v. mg/kg
"O=C(Nc1cccnc1)C(=O)c1cn(Cc2ccc(F)cc2)c2ccccc12 [Example 3, N-(Pyridin-3-yl)-[1-(4-fluorobenzyl)indol-3-yl]glyoxylamide]",EC50,SK-OV-3 cell line; [2],1.75 µg/mL
same,EC50,LNCAP cell line; LNCaP tumor cells,9.25 µg/mL
same,EC50,KB cell line; KB tumor cells,1.75 µg/mL
same,EC50,L1210 cell line; [3],1.75 µg/mL
"O=C(Nc1cccnc1)C(=O)c1cn(Cc2ccccc2)c2ccccc12 [Example 4, N-(Pyridin-3-yl)-(1-benzylindol-3-yl)glyoxylamide]",EC50,SK-OV-3 cell line; [4],9.2 µg/mL
same,EC50,LNCAP cell line; LNCaP,> 31.6 µg/mL
same,EC50,KB cell line,17.5 µg/mL
same,EC50,L1210 cell line; [5],1.75 µg/mL
"O=C(Nc1ccc(F)cc1)C(=O)c1cn(Cc2ccc(F)cc2)c2ccccc12 [Example 6, N-(4-Fluorophenyl)-[1-(4-fluorobenzyl)indol-3-yl]glyoxylamide]",EC50,SK-OV-3 cell line; [2],17.5 µg/mL
same,EC50,LNCAP cell line; LNCaP tumor cells,> 31.6 µg/mL
same,EC50,KB cell line; KB tumor cells,3.1 µg/mL
same,EC50,L1210 cell line; [3],1.75 µg/mL
"O=C(Nc1ccncc1)C(=O)c1cn(Cc2ccccc2)c2ccccc12 [Example 9, N-(Pyridin-4-yl)-(1-benzylindol-3-yl)glyoxylamide]",EC50,SK-OV-3 cell line; [4],1.75 µg/mL
same,EC50,LNCAP cell line; LNCaP,3.24 µg/mL
same,EC50,KB cell line,0.05 µg/mL
same,EC50,L1210 cell line; [5],0.09 µg/mL
"O=C(Nc1ccncc1)C(=O)c1cn(Cc2cccnc2)c2ccccc12 [Example 10, N-(Pyridin-4-yl)-[1-(3-pyridylmethyl)indol-3-yl]glyoxylamide]",EC50,SK-OV-3 cell line; [2],7.22 µg/mL
same,EC50,LNCAP cell line; LNCaP tumor cells,> 31.6 µg/mL
same,EC50,KB cell line; KB tumor cells,4.06 µg/mL
same,EC50,L1210 cell line; [3],1.75 µg/mL
"O=C(Nc1ccc(F)cc1)C(=O)c1cn(Cc2ccccn2)c2ccccc12 [Example 11, N-(4-Fluorophenyl)-[1-(2-pyridylmethyl)indol-3-yl]glyoxylamide]",EC50,SK-OV-3 cell line; [2],4.25 µg/mL
same,EC50,LNCAP cell line; LNCaP tumor cells,17.5 µg/mL
same,EC50,KB cell line; KB tumor cells,4.59 µg/mL
same,EC50,L1210 cell line; [3],1.75 µg/mL
"O=C(Nc1ccc(F)cc1)C(=O)c1cn(Cc2cccnc2)c2ccccc12 [Example 12, N-(4-Fluorophenyl)-[1(3-pyridylmethyl)indol-3-yl]glyoxylamide]",EC50,SK-OV-3 cell line; [2],> 31.6 µg/mL
same,EC50,LNCAP cell line; LNCaP tumor cells,> 31.6 µg/mL
same,EC50,KB cell line; KB tumor cells,> 31.6 µg/mL
same,EC50,L1210 cell line; [3],0.017 µg/mL
"O=C(Nc1ccncc1)C(=O)c1cn(Cc2ccccc2Cl)c2ccccc12 [Example 14, N-(Pyridin-4-yl)-[1-(2-chlorobenzyl)indol-3-yl]glyoxylamide]",EC50,SK-OV-3 cell line; [2],2.58 µg/mL
same,EC50,LNCAP cell line; LNCaP tumor cells,17.5 µg/mL
same,EC50,KB cell line; KB tumor cells,1.75 µg/mL
same,EC50,L1210 cell line; [3],1.75 µg/mL
"O=C(Nc1ccccn1)C(=O)c1cn(Cc2ccc(F)cc2)c2ccccc12 [Example 15, N-(Pyridin-2-yl)-[1-(4-fluorobenzyl)indol-3-yl]glyoxylamide]",EC50,SK-OV-3 cell line; [4],> 31.6 µg/mL
same,EC50,LNCAP cell line; LNCaP,> 31.6 µg/mL
same,EC50,KB cell line,> 31.6 µg/mL
same,EC50,L1210 cell line; [5],3.1 µg/mL
"O=C(Nc1ccncc1)C(=O)c1cn(Cc2ccccn2)c2ccccc12 [Example 16, N-(Pyridin-4-yl)-[1-(2-pyridylmethyl)indol-3-yl]glyoxylamide]",EC50,SK-OV-3 cell line; [2],4.25 µg/mL
same,EC50,LNCAP cell line; LNCaP tumor cells,17.5 µg/mL
same,EC50,KB cell line; KB tumor cells,4.59 µg/mL
same,EC50,L1210 cell line; [3],1.75 µg/mL
"O=P1(NCCCl)OCCCN1CCCl (stereo not drawn) [Ifosfamide, reference compound]",ILS at 316 mg/kg,"L1210; Mus musculus, L1210, ip, 1 × x 316 mg/kg i.p.",89%
same,Tox. i.p.,[1]; i.p. (Table 5),≈732 i.p. mg/kg
"C[C@@H]1[O][Pt]2([NH]CC3CCC3C[NH]2)[O]C1=O (stereo partly drawn) [Lobaplatin, reference compound]",% ILS L1210,L1210; 1 × 14.7 mg/kg ip,55.0% ILS
same,Tox. i.p.,"[1]; in vivo, ip",≈34.0 i.p. mg/kg
"CN(Cc1cnc2nc(N)nc(N)c2n1)c1ccc(C(=O)N[C@@H](CCC(=O)O)C(=O)O)cc1 [Methotrexate, reference compound]",EC50,SK-OV-3 cell line; [2],> 31.6 µg/mL
same,ILS at 53.7 mg/kg,"L1210; Mus musculus, L1210, ip, 1 × 53.7 mg/kg i.p.",39%
same,EC50,KB cell line; KB tumor cells,~0.007 µg/mL
CCCCCCCCCCCCCCCCOP(=O)([O-])OCC[N+](C)(C)C [Miltefosine],L1210 antitumor action (Table 5),L1210; no dose given,no action
same,Tox. i.p.,[1]; i.p. (Table 5),≈46.4 i.p. mg/kg
same,Tox. p.o.,[1],≈464-1000 mg/kg
"O=C1c2c(O)ccc(O)c2C(=O)c2c(NCCNCCO)ccc(NCCNCCO)c21 [Mitoxantrone, reference compound]",EC50,SK-OV-3 cell line; [2],~0.174 µg/mL
same,EC50,LNCAP cell line; LNCaP tumor cells,~0.017 µg/mL
same,ILS at 4.64 mg/kg,"L1210; Mus musculus, L1210, iv, 1 × 4.64 mg/kg i.v.",144%
same,Tox. i.v.,[1]; i.v. (Table 5),16 i.v. mg/kg
same,EC50,KB cell line; KB tumor cells,~0.174 µg/mL
same,EC50,L1210 cell line; [3],< 0.0003 µg/mL
"C/C=C/[C@@H]1O[C@H]([C@H](O)/C=C/C=C(\C)C[C@@H](C)/C=C(C)\C=C\[C@H]2CC=CC(=O)O2)C[C@@H](O)[C@@H]1C [Ratjadone, reference compound]",XTT EC50 SK-OV-3,SK-OV-3 cell line,SKOV3 < 0.003 μg/ml
same,XTT EC50 LNCaP,LNCAP cell line; LNCaP tumor cells,LNCAP < 0.003 μg/ml
same,% ILS L1210,L1210; 1 × 1.47 mg/kg i.p.,22% ILS
same,Tox. i.p.,[1]; i.p. (Table 5),~16.0 mg/kg
same,Tox. i.v.,[1]; i.v. (Table 5),~30.0 i.v. mg/kg
same,XTT EC50 KB,KB cell line; KB tumor cells,KB < 0.003 μg/ml
same,XTT EC50 L1210,L1210 cell line,L1210 < 0.003 μg/ml
"CC[C@]1(O)C[C@H]2CN(CCc3c([nH]c4ccccc34)[C@@](C(=O)OC)(c3cc4c(cc3OC)N(C=O)[C@H]3[C@@](O)(C(=O)OC)[C@H](OC(C)=O)[C@]5(CC)C=CCN6CC[C@]43[C@@H]65)C2)C1 [Vincristine, reference compound]",EC50,SK-OV-3 cell line; [2],0.003 µg/mL
same,EC50,"LNCAP cell line; LNCaP, LNCaP tumor cells",0.004 µg/mL
same,ILS at 1 mg/kg,"L1210; Mus musculus, L1210, ip, 1 × 1.0 mg/kg i.p.",29%
same,Tox. i.v.,[1]; i.v. (Table 5),≈3.0 i.v. mg/kg
same,EC50,KB cell line; KB tumor cells,< 0.001 µg/mL
same,EC50,L1210 cell line; [3],0.004 µg/mL

# Reference: US7579365B2 (ZIOPHRAM Oncology, Inc., priority 1998, dated 2009)
